These results are taken from patent US12291502B2, “Topoisomerase II-alpha inhibitors and methods of treating cancer using the same” (The Regents of the University of Colorado, priority 2019, dated 2025).

The target of one assay is T1, Human TOP2A (Homo sapiens, UniProt P11388).
T1 construct: purchased TopoGEN (Buena Vista, CO)
Put plainly: TOP2A DNA decatenation assay (kDNA, agarose gel). Format: biochemical. To be noted: for IC50: decatenation dose response; for % Inhibition TOP2A (30 μM) / inhibition at 30 µM: decatenation, 30 μM fixed concentration; for TOP2A inhibition, result in words: decatenation screen at 30 μM; for inhibition at 30 µM: 1 h, read-out: % Inhibition TOP2A (30 μM). How it is done: Inhibition of TOP2A activity. Human TOP2A, kDNA, and assay buffers were obtained from TopoGEN (Buena Vista, CO). The synthesized compounds were screened for their TOP2A inhibitory activity by the intensity of DNA decatenation bands on a DNA gel when compared to the vehicle. Compounds were initially incubated with TOP2A (3 U/reaction) for 20 min at a 30 μM and 1.2% DMSO concentration in a 37° C. incubator without CO2.
The decatenation reaction was initiated immediately after by adding 2 mM ATP and 35 ng/reaction of kDNA, then incubated for 1 hour in a 37° C. water bath. The samples were loaded into a 0.8% agarose gel in 1× Tris-Borate-EDTA (TBE) at a 0.2 μg/mL ethidium bromide concentration and allowed to run in an electrophoretic chamber for 1 hour at 100V. Compounds with the highest inhibitory activity were selected for 2-fold serial dilution dose-response assays (58.6 nM-30 μM). The dose-response assays followed the same protocol with the exception of 4 U/reaction of TOP2A.
Inhibition studies of TOP2A and observed structure activity relationships (SAR). DNA catenation/decatenation or linking/unlinking of DNA is one of the main TOP2A functions essential for regulating DNA topology, and this is ATP dependent. […] Thus, as a starting point, the synthesized analogs were screened against TOP2A-dependent decatenation using 30 μM fixed concentrations, and the DNA from reactions were resolved on 0.8% agarose gels containing ethidium bromide.
Moreover, these studies provided interesting SAR, which shed light on the potential lead drug target binding interactions and affinity, biological activity, and future drug design optimization with this unique class of TOP2A inhibitors.
(§1) TOP2A decatenation assay. Human TOP2A, kDNA, and assay buffers were obtained from TopoGEN (Buena Vista, CO). The synthesized compounds were screened for their TOP2A inhibitory activity by the intensity of DNA decatenation bands on a DNA gel when compared to the vehicle. Compounds were initially incubated with TOP2A (3 U/reaction) for 20 min at a 30 μM and 1.2% DMSO concentration in a 37° C. incubator without CO2. The decatenation reaction was initiated immediately after by adding 2 mM ATP and 35 ng/reaction of kDNA, then incubated for 1 h in a 37° C. water bath. The samples were loaded into a 0.8% agarose gel in 1× Tris-Borate-EDTA (TBE) at a 0.2 μg/mL ethidium bromide concentration and allowed to run in an electrophoretic chamber for 1 h at 100V. Compounds with the highest inhibitory activity were selected for 2-fold serial dilution dose-response assays (58.6 nM-30 μM). The dose-response assays followed the same protocol with the exception of 4 U/reaction of TOP2A,
as §1, with “assays (53.6” for “assays (58.6”, “of TOP2A.” for “of TOP2A,”

For assay [1], the system named is TOP2A-dependent TCF-transcription in SW620-TOP tumor organoids. The assay can be described thus: TCF (TOPflash) reporter assay in 3D tumor organoids. It is filed as cell-based. Particulars: for IC50: 72 hours. As to the method: TCF reporter assay in 3D Tumor organoid. Stable engineered cells containing pCDH-TOPflash-luc-EF1-puro were used to generate tumor organoid arrayed in 96-well plates and treated for 72 hours. One-Glo™ luciferase reagent and CellTiter-Glo™ 3D cell viability reagent (Promega) were used to determine the TCF reporter activity in viable cells.
After characterizing 3 and 7 as TOP2A ATP-competitive inhibitors, these compounds were next tested for their ability to inhibit TOP2A-dependent TCF-transcription using the well characterized TOPflash (TOP) luminescent reporter, which was used to generate a stably transduced SW620-TOP reporter cells as described previously (Zhou, et al., Oncogene 2016, 35:4990-9). These cells were used to generate single 3D tumor organoids (700 μm in diameter) uniformly arrayed in 96-well plates, which mimic aspects of tumor function observed in vivo. […] Like neo, the mode of action of compounds 3 and 7 also results in significant antitumor activity (FIGS. 3E-3H). […] In other words, the activity of 3 and 7 is long lasting, suppressing CSC stemness and related tumorigenicity. EMT is a major driving force promoting tumor cell invasion and metastasis. […] Tumor organoids were dissociated, and viable cells were washed and plated into the top chamber of 96-well invasion plate coated with Matrigel and incubated for an additional 72 hours without adding any additional compound. […] Taken together, the biological activity of 3 and 7 is consistent with the activity of neo, inhibiting TOP2A-dependent TCF-transcription that in turn reverses EMT while inhibiting the associated tumorigenic properties of mCRC.
A similar trend in IC50 values was observed compared to TOP2A enzyme studies, further supporting our proposed mechanism of action as inhibition of TOP2A-dependent TCF-transcription.
3D Tumor organoid TOPflash reporter assay. […] 35(38): p. 4990-9.] were used to generate tumor organoids arrayed in 96-well plates and treated for 72 h with TOP2A inhibitors. One-Glo™ luciferase reagent and CellTiter-Glo™ 3D cell viability reagent (Promega, WI) were used to determine the TCF reporter activity in viable cells. Briefly, reagents were added to the spheroids at 1:1 ratio (v:v) and the plates were placed on an orbital shaker (300 rpm) for 10 min at room temperature before the luminescence was read with Envision plate reader (PerkinElmer, MA). TCF reporter activity was normalized to organoid viability and inhibitors treated conditions were normalized to DMSO treated controls.
On the technique in general: A reporter such as luciferase makes a cellular process visible.

The subject of assay [2] is vimentin promoter activity (VimPro-GFP) in SW620 cells. Put plainly: VimPro-GFP EMT reporter assay.
Protocol: VimPro-GFP and EcadPro-mCherry reporter assays. VimPiro-GFP: SW620 cells were first transduced with NucLight Red virus (Essen BioSciences) and selected with Zeocin at 200 μg/mL, and then transduced with pCDH-VimPro-GFP-EF1-puro virus and selected with puromycin at 4 μg/mL. The dual fluorescently labeled cells were plated and treated in 3D tumor organoid as described. Tumor organoid images were recorded every 2 hours over a 72 hours period using an incucyte ZOOM content imaging system (Essen BioSciences) or PerkinElmer Phenix imager (PerkinElmer).
Analogs were also assessed for their ability to modulate or reverse EMT using VimPro-GFP and EcadPro-RFP SW620 reporter cells cultured as tumor organoids, determining EC50 dose responses over 72 hours (Table 2).
VimPro-GFP and EcadPro-RFP reporter assays. Stable VimPro-GFP or EcadPro-RFP SW620 reporter cells were generated using pCDH-VimPro-GFP-EF1-puro virus or pCDH-EcadPro-mCherry-EF1-puro virus as previously reported. […] Transduced cells were selected with puromycin at 2 μg/mL. The stable fluorescent labeled reporter cells were then used to generate tumor organoids as described. Tumor organoids were then treated with TOP2A inhibitors at 10 μM for an additional 72 h. Following treatment, tumor organoids were stained with 16 μM of Hoechst 33342 for 1 h, which functions as a nuclear stain for imaging segmentation. Images were taken with a 5× air objective. Z stacks were set at 20 μm apart for a total of 7 layers. Imaging analysis was performed using an Opera Phenix high content screening (HCS) system and Harmony high-content imaging and analysis software interface (PerkinElmer, MA). Nuclei were identified with Hoechst 33342 stain within each layer, and cells were found with either GFP or mCherry channel. The intensities of each fluorescence channel within the cells were calculated and thresholds were set based on the background intensities. Percentages of GFP or mCherry positive cells were calculated and normalized to the DMSO treated group.
VimPro-GFP and EcadPro-RFP reporter assays. Stable VimPro-GFP or EcadPro-RFP SW620 reporter cells were generated using pCDH-VimPro-GFP-EF1-puro virus or pCDH-EcadPro-mCherry-EF1-puro virus as previously reported. […] Transduced cells were selected with puromycin at 2 μg/mL. The stable fluorescent labeled reporter cells were then used to generate tumor organoids as described. Tumor organoids were then treated with TOP2A inhibitors at 10 μM for an additional 72 h. Following treatment, tumor organoids were stained with 16 μM of Hoechst 33342 for 1 h, which functions as a nuclear stain for imaging segmentation. Images were taken with a 5× air objective.
Assay [3] concerns E-cadherin promoter activity (EcadPro-RFP) in SW620 cells. The assay can be described thus: EcadPro-RFP (mCherry) EMT reporter assay. Format: cell-based. To be noted: SW620 tumor organoids; for EC50: Table 2, 72 hours, read-out: % E-cadherin upregulation EC50.
Source text: (§2) VimPro-GFP and EcadPro-RFP reporter assays. […] 35(38): p. 4990-9.]
as §2

Setting [4] is: Table 1, read-out: % Inhibition TOP2A (IC50 Values).
Setting [5] is: read-out: IC50 TOP2A inhibition.
The mark [6] stands for this setting: read-out: % Vimentin downregulation EC50, Table 2, SW620 tumor organoids, 72 hours.
The mark [7] stands for this setting: Homo sapiens, SW-620, Table 2, SW620 tumor organoids, read-out: % TCP inhibition IC50.
Where [8] appears, read: SW620-TOP tumor organoids, read-out: IC50 inhibition of TCF-transcription.
[9] abbreviates: Homo sapiens, SW-620, 72 h, read-out: % Vimentin downregulation EC50 (μM).

The structures appear in SMILES notation. Several values for one entry are separate records, joined by “and”; a condition that tells them apart may be missing. Equal entries are not always repeated. Entries after “also recorded” stand apart in the source; their conditions may differ. Where two headings read alike, the source gives them in different places.

T1 sequence (P11388 whole entry): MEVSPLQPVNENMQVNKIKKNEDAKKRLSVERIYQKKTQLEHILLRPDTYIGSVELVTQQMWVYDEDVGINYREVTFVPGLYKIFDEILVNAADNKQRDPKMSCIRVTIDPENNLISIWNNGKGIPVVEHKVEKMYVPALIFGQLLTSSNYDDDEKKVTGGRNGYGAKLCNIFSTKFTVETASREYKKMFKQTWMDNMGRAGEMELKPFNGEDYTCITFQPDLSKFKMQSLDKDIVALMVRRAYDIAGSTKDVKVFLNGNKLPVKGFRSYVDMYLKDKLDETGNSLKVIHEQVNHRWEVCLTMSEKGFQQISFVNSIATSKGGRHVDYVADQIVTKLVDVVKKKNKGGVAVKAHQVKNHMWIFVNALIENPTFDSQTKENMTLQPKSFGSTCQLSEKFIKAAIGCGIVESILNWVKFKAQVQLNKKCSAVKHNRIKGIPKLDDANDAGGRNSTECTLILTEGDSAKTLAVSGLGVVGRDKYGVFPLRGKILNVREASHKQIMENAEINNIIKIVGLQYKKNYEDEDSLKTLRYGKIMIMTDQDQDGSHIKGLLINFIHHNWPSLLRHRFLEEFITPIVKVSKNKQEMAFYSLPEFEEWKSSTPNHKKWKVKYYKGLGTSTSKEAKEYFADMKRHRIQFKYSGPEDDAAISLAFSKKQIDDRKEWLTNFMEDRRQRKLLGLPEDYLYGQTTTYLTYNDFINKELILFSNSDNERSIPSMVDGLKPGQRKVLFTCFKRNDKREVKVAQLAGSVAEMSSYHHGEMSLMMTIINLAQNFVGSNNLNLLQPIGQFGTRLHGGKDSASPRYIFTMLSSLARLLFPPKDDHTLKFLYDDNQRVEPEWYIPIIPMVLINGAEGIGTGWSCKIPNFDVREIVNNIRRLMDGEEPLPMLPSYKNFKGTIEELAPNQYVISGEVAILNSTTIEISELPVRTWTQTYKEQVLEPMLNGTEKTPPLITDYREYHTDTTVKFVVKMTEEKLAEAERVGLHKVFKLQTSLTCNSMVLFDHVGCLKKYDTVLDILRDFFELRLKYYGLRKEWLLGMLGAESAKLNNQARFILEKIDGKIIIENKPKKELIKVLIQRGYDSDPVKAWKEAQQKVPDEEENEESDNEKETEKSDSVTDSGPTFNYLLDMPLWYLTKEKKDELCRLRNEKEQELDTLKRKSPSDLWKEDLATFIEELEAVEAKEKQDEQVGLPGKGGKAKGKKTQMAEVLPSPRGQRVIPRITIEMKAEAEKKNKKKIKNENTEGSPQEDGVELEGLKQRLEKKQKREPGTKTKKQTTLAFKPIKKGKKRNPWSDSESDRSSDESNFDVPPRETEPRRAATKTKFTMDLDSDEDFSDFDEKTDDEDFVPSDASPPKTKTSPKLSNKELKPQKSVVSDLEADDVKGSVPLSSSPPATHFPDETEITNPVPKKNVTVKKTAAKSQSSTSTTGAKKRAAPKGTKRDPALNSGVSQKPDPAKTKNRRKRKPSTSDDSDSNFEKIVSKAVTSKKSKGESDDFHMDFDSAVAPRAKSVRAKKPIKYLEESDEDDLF

Turning to `CC(C)(C)C(=O)Nc1ccc2c(-c3ccccc3)ccnc2c1O` [Analog 39], the IC50 on Human TOP2A (setting [4]) was 1.3 µM; on Human TOP2A (setting [5]), about 1 µM; in assay [1] (Table 2, SW620 tumor organoids, read-out: % TCP inhibition IC50), 4.7 µM. The “% Inhibition TOP2A (30 μM)” value on Human TOP2A (Table 1) is 97.0%. Besides, the EC50 in assay [2] (setting [6]) was 4.7 µM; in assay [3], 3.1 µM.
As for `Cn1ccc2c(c1=O)C(=O)c1nccc3c1C2NC1=CCC=CC13` (stereo not drawn) [neo, neoamphimedine, reference compound], on Human TOP2A, the “TOP2A inhibition, result in words” value is “significantly inhibits TOP2A mediated DNA decatenation”.
For `O=C(CCN1CCOCC1)Nc1ccc2c(-c3cc(F)ccc3O)ccnc2c1O` [Analog 42], the inhibition at 30 µM at Human TOP2A (Table 1) worked out at 90%. Moreover, the values for the IC50 (at Human TOP2A (setting [5]); in assay [1] (setting [7]); in assay [1] (setting [8])) were 0.6 µM, 3.2 µM and 3.2 µM, respectively. Also, the EC50 in assay [2] (setting [9]) stood at 13.2 µM; in assay [3] (Homo sapiens, SW-620), 5.9 µM.
Take `CC(=O)Nc1ccc2c(-c3cc(F)ccc3O)ccnc2c1O` [Analog 7]: the inhibition at 30 µM at Human TOP2A (Table 1) worked out at 99%. Moreover, the IC50 is 5.81 µM and 5.8 µM at Human TOP2A (setting [5]); 6 µM in assay [1] (setting [7]). For the same compound, the “TOP2A inhibition, result in words” value at Human TOP2A is on record as “complete enzyme inhibition”. The “inhibition of TCF-transcription (TOP-activity), in words” value in assay [1] (SW620 tumor organoids, TOPflash reporter) is “significantly inhibit TOP-activity; also recorded: significantly inhibit TOP2A-dependent TCF-transcription”. The EC50 in assay [2] (setting [9]) turned out to be 10.8 µM; in assay [3] (Homo sapiens, SW-620), 5.3 µM. Further, in assay [2] (SW620 tumor organoids), the “vimentin downregulation (VimPro-GFP), in words” value is “dose-dependent downregulation of vimentin”. For the same compound, the “E-cadherin upregulation (EcadPro-RFP), in words” value in assay [3] is reported as “upregulation of E-cadherin”.
Take `CC(=O)Nc1ccc(-c2ccnc3c(O)c(NC(C)=O)ccc23)cc1` [Analog 35]: the results for the IC50 (on Human TOP2A (setting [4]); in assay [1] (setting [8])) were 1.9 µM and 2 µM, respectively. Moreover, on Human TOP2A (Table 1), the “% Inhibition TOP2A (30 μM)” value is reported as 97.0%. Besides, the “TOP2A inhibition, result in words” value at Human TOP2A is listed as “restored inhibitory activity against TOP2A”. The EC50 in assay [2] (setting [6]) was determined as 9.5 µM; in assay [3], 5.5 µM.
Take `CC(=O)Nc1ccc2c(-c3ccoc3)ccnc2c1O` [Analog 56]: the inhibition at 30 µM on Human TOP2A (Table 1) came to 86%. Further, the IC50 on Human TOP2A (setting [4]) worked out at 6.4 µM; in assay [1] (setting [7]), 7 µM. Moreover, the EC50 amounted to 25.7 µM in assay [2] (setting [9]) and 10.6 µM in assay [3] (Homo sapiens, SW-620).

Broadly, the IC50 is the concentration that gives 50% inhibition. For orientation: EC50 means the concentration at which the effect is half-maximal. The inhibition is the relative decrease from the control value, in per cent.
